Reference: US8697637B2, “Antimicrobial peptides of the cecropin family and therapeutic uses thereof” (Institut de Recherche pour le Developpement (IRD), priority 2010, dated 2014)
Converted amounts (≈) assume the structure as drawn. Where a SMILES comes first, the peptide text is derived from it.

Experiments:
Assay type in all cases: cell-based
[1] = test system: Escherichia coli (Gram negative); settings: E. coli, LB medium, 37° C., 24 hours, complete inhibition of growth
Procedure: (§1) The bacteria Escherichia coli (Gram negative) and Micrococcus luteus (Gram positive) are cultivated in an LB (Luria-Bertani) culture medium with and without the peptides GK36 and MK61 to be tested. The bacterial growth is checked after incubation for one night at 37° C. by measuring the change in the absorbance value at 600 nanometres (A600) with the aid of a microplate spectrophotometer. The peptides MK61 and GK36 are incubated for 24 hours with the Gram negative and Gram positive bacteria. The minimum inhibitory concentration (MIC) of the synthetic peptides GK36 and MK61 represents the lowest peptide concentration that is sufficient to inhibit bacterial growth completely.
(§2) The results obtained are shown in FIG. 1 for the bacterium Escherichia coli (Gram negative) and in FIG. 2 for the bacterium Micrococcus luteus (Gram positive).

[2] = test system: Micrococcus luteus (Gram positive); assay: Antibacterial test, bacterial growth in LB medium (A600), MIC; settings: 37° C., 24 hours, complete inhibition of growth
Procedure: as §1, §2

[3] = test system: dengue virus serotype 2 "DENV-2"; assay: Inhibition of the infection of dendritic cells by the dengue virus (real-time PCR); settings: peptide at 2.5 μg/ml, DENV-2 MOI 0.4, 48 hours
Procedure: The dendritic cells are incubated for 3 hours at 37° C. in the presence of the dengue virus (they are infected at an “MOI” (“multiplicity of infection”) of 0.4) with and without the peptides MK61 and GK36 to be tested, which are prepared at concentrations of 2.5 μg/ml and 12 μg/ml for MK61 and 2.5 μg/ml for GK36. The supernatant is then withdrawn and the cells are or are not brought into contact with peptide for 48 hours.
Real-time PCR analyses are then carried out. The cell viability is evaluated by flow cytometry, and no cell toxicity is observed.

DENV-1 = assay: Inhibition of the infection of C6/36 cells by the dengue virus (RT-PCR); settings: C6/36 cells of Aedes albopictus, 5 or 10 μg/ml, 12 or 24 hours, RT-PCR bands
Procedure: (§3) The C6/36 cells of Aedes albopictus mosquitoes are incubated for one hour at 4° C. with the various dengue viruses ((serotype 1) “DENV-1” or (serotype 2) “DENV-2” or (serotype 3) “DENV-3” or (serotype 4) “DENV-4”) (with “PFUs” (“plaque forming units”) of 1). The cells are then washed three times and incubated for 12 hours or 24 hours at 28° C. in the presence or absence of the peptides GK36 and MK61 to be tested, which are each prepared at concentrations of 5 μg/ml or 10 μg/ml.
(§4) RT-PCR analyses are then carried out on the cell pellets in order to detect the presence of the dengue virus.

DENV-2 = assay: as above; settings: C6/36 cells of Aedes albopictus, 5 or 10 μg/ml, 12 or 24 hours, RT-PCR bands
Procedure: as §3, §4

DENV-3 = assay: as above; settings: C6/36 cells of Aedes albopictus, 5 or 10 μg/ml, 12 or 24 hours, RT-PCR bands
Procedure: as §3, §4

DENV-4 = assay: as above; settings: C6/36 cells of Aedes albopictus, 5 or 10 μg/ml, 12 or 24 hours, RT-PCR bands
Procedure: as §3, §4

CHIKV-147-2 GFP virus = assay: Inhibition of the infection of HEK-293T cells by chikungunya virus (GFP, flow cytometry); settings: MOI 1, peptide at 10, 50 and 80 μg/ml, 48 hours
Procedure: The cells, which come from the human cell line HEK-293T (human embryonic kidney 293), are incubated for 2 hours at 37° C. in the presence of CHIKV-147-2 GFP virus (they are infected at an “MOI” of 1) with and without the peptides GK36 and MK61 to be tested, which are each prepared at concentrations of 10 μg/ml, 50 μg/ml and 80 μg/ml. The supernatant is then withdrawn and the cells are or are not brought into contact with peptides for 48 hours. The percentage of cells infected corresponds to the percentage of GFP (“green fluorescent protein”) cells visualised by flow cytometry (10,000 cells were counted per condition).

parasite = assay: Antiparasitic activity (general statement); settings: general statement in the description

CC[C@H](C)[C@H](NC(=O)CNC(=O)[C@@H](NC(=O)[C@@H](NC(=O)[C@@H](NC(=O)[C@@H]1CCCN1C(=O)[C@H](CC(C)C)NC(=O)[C@H](C)NC(=O)[C@H](CCCCN)NC(=O)[C@H](CCC(=O)O)NC(=O)[C@H](CO)NC(=O)[C@H](C)NC(=O)[C@H](CCCCN)NC(=O)[C@H](Cc1ccccc1)NC(=O)[C@@H](NC(=O)[C@H](CCCNC(=N)N)NC(=O)[C@H](CCCCN)NC(=O)CNC(=O)[C@H](C)NC(=O)CNC(=O)[C@H](CCC(=O)O)NC(=O)[C@H](CC(C)C)NC(=O)[C@H](CCCCN)NC(=O)[C@H](CCCCN)NC(=O)CNC(=O)[C@H](CC(C)C)NC(=O)[C@H](CCCCN)NC(=O)[C@H](CCCCN)NC(=O)[C@H](CC(C)C)NC(=O)CNC(=O)CN)C(C)C)C(C)C)C(C)C)C(C)C)C(=O)N[C@@H](CCCCN)C(=O)N[C@@H](C)C(=O)N[C@H](C(=O)NCC(=O)N[C@@H](CCCCN)C(=O)O)[C@@H](C)CC [GK36] (H-GGLKKLGKKLEGAGKRVFKASEKALPVVVGIKAIGK-OH; N-terminus and C-terminus assumed)
minimum inhibitory concentration (MIC) [1]: 0.6 µM (≈ 2.21 µg/mL)
minimum inhibitory concentration (MIC) [2]: 10 µM (≈ 36.8 µg/mL)
inhibition of the infection of the dendritic cells [3]: 35%
inhibition of the infection of C6/36 cells by dengue-1 virus (DENV-1): inhibit the infection
inhibition of the infection of C6/36 cells by dengue-2 virus (DENV-2): inhibit the infection
inhibition of the infection of C6/36 cells by dengue-3 virus (DENV-3): inhibit the infection
inhibition of the infection of C6/36 cells by dengue-4 virus (DENV-4): inhibit the infection
inhibition of the infection of HEK-293T cells (CHIKV-147-2 GFP virus): inhibits the infection of the HEK-293T cells
antiparasitic activity (parasite): does not exhibit antiparasitic activity
